# Assay results published in patent publication US20180110754A1, “CENICRIVIROC FOR THE TREATMENT OF FIBROSIS” (Tobira Therapeutics, Inc., priority 2015, published 2018).
# Key:
# [1] = Study 202: ECG abnormalities and vital signs; format: in vivo, human; settings: for HR Abnormally high, n subjects / HR Abnormally low, n subjects / PR Abnormally high, n subjects / QRS Abnormally high, n subjects / QRS Abnormally low, n subjects / QTcB interval Borderline (450-480 ms), n subjects / QTcB interval Increase by >30-60 ms, n subjects / QTcB interval Increase by >60 ms, n subjects / QTcB interval Pathologically prolonged, n subjects / QTcB interval Prolonged, n subjects / QTcF interval Borderline (450-480 ms), n subjects / QTcF interval Increase by >30-60 ms, n subjects / QTcF interval Increase by >60 ms, n subjects / QTcF interval Pathologically prolonged, n subjects / QTcF interval Prolonged, n subjects: through Week 48
# [2] = Study 202: treatment-emergent laboratory abnormalities (DAIDS grades; CPK, ALT, AST, bilirubin); format: in vivo
# Text: The number of subjects with graded treatment-emergent laboratory abnormalities in selected liver parameters of interest is shown in Table 34. No Grade 4 ALT or AST elevations were observed. Except for one Grade 3 AST elevation, all ALT and AST elevations were Grade 1 or Grade 2. […] All abnormalities in bilirubin were Grade 1 or Grade 2. […]
# [3] = All CVC (N = 115), EFV (N = 28)
# [4] = All CVC (N = 115), EFV (N = 28), through Week 48
# [5] = CVC 100 mg (N = 58), through Week 48
structure (smiles),measurement,setting,value
"CCCCOCCOc1ccc(-c2ccc3c(c2)/C=C(/C(=O)Nc2ccc([S@@+]([O-])Cc4cncn4CCC)cc2)CCCN3CC(C)C)cc1 [CVC, (S)-8-[4-(2-Butoxyethoxy)phenyl]-1-isobutyl-N-(4-{[(1-propyl-1H-imidazol-5-yl)methyl]sulfinyl}phenyl)-1,2,3,4-tetrahydro-1-benzazocine-5-carboxamide]","HR Abnormally high, n subjects",[1]; [3],0
same,"HR Abnormally low, n subjects",[1]; [3],0
same,"PR Abnormally high, n subjects",[1]; [3],3
same,"QRS Abnormally high, n subjects",[1]; [3],1
same,"QRS Abnormally low, n subjects",[1]; [3],0
same,"QTcB interval Borderline (450-480 ms), n subjects",[1]; [3],6
same,"QTcB interval Increase by >30-60 ms, n subjects",[1]; [3],9
same,"QTcB interval Increase by >60 ms, n subjects",[1]; [3],1
same,"QTcB interval Pathologically prolonged, n subjects",[1]; [3],0
same,"QTcB interval Prolonged, n subjects",[1]; [3],0
same,"QTcF interval Borderline (450-480 ms), n subjects",[1]; [3],2
same,"QTcF interval Increase by >30-60 ms, n subjects",[1]; [3],7
same,"QTcF interval Increase by >60 ms, n subjects",[1]; [3],1
same,"QTcF interval Pathologically prolonged, n subjects",[1]; [3],0
same,"QTcF interval Prolonged, n subjects",[1]; [3],0
same,"HR Abnormally high, n subjects",[1]; CVC 100 mg (N = 58),0
same,"HR Abnormally low, n subjects",[1]; CVC 100 mg (N = 58),0
same,"PR Abnormally high, n subjects",[1]; CVC 100 mg (N = 58),2
same,"QRS Abnormally high, n subjects",[1]; CVC 100 mg (N = 58),1
same,"QRS Abnormally low, n subjects",[1]; CVC 100 mg (N = 58),0
same,"QTcB interval Borderline (450-480 ms), n subjects",[1]; CVC 100 mg (N = 58),4
same,"QTcB interval Increase by >30-60 ms, n subjects",[1]; CVC 100 mg (N = 58),6
same,"QTcB interval Increase by >60 ms, n subjects",[1]; CVC 100 mg (N = 58),1
same,"QTcB interval Pathologically prolonged, n subjects",[1]; CVC 100 mg (N = 58),0
same,"QTcB interval Prolonged, n subjects",[1]; CVC 100 mg (N = 58),0
same,"QTcF interval Borderline (450-480 ms), n subjects",[1]; CVC 100 mg (N = 58),1
same,"QTcF interval Increase by >30-60 ms, n subjects",[1]; CVC 100 mg (N = 58),4
same,"QTcF interval Increase by >60 ms, n subjects",[1]; CVC 100 mg (N = 58),1
same,"QTcF interval Pathologically prolonged, n subjects",[1]; CVC 100 mg (N = 58),0
same,"QTcF interval Prolonged, n subjects",[1]; CVC 100 mg (N = 58),0
same,Subjects with QTc increase of >60 msec,[1]; CVC 100 mg arm,1 subject
same,"HR Abnormally high, n subjects",[1]; CVC 200 mg (N = 57),0
same,"HR Abnormally low, n subjects",[1]; CVC 200 mg (N = 57),0
same,"PR Abnormally high, n subjects",[1]; CVC 200 mg (N = 57),1 (2%)
same,"QRS Abnormally high, n subjects",[1]; CVC 200 mg (N = 57),0
same,"QRS Abnormally low, n subjects",[1]; CVC 200 mg (N = 57),0
same,"QTcB interval Borderline (450-480 ms), n subjects",[1]; CVC 200 mg (N = 57),2 (4%)
same,"QTcB interval Increase by >30-60 ms, n subjects",[1]; CVC 200 mg (N = 57),3 (6%)
same,"QTcB interval Increase by >60 ms, n subjects",[1]; CVC 200 mg (N = 57),0
same,"QTcB interval Pathologically prolonged, n subjects",[1]; CVC 200 mg (N = 57),0
same,"QTcB interval Prolonged, n subjects",[1]; CVC 200 mg (N = 57),0
same,"QTcF interval Borderline (450-480 ms), n subjects",[1]; CVC 200 mg (N = 57),1 (2%)
same,"QTcF interval Increase by >30-60 ms, n subjects",[1]; CVC 200 mg (N = 57),3 (6%)
same,"QTcF interval Increase by >60 ms, n subjects",[1]; CVC 200 mg (N = 57),0
same,"QTcF interval Pathologically prolonged, n subjects",[1]; CVC 200 mg (N = 57),0
same,"QTcF interval Prolonged, n subjects",[1]; CVC 200 mg (N = 57),0
same,"Any graded (Grade 1-4) treatment-emergent laboratory abnormality, n subjects",[2]; [3],106
same,"Laboratory abnormality, worst Grade 1, n subjects",[2]; [3],37
same,"Laboratory abnormality, worst Grade 2, n subjects",[2]; [3],50
same,"Laboratory abnormality, worst Grade 3 (Any Grade 3 abnormality), n subjects",[2]; [3],13
same,"Laboratory abnormality, worst Grade 4 (Any Grade 4 abnormality), n subjects",[2]; [3],6
same,"ALT, worst Grade 1, n subjects",[2]; [4],10
same,"ALT, worst Grade 2, n subjects",[2]; [4],5
same,"ALT, worst Grade 3, n subjects",[2]; [4],0
same,"ALT, worst Grade 4, n subjects",[2]; [4],0
same,"AST, worst Grade 1, n subjects",[2]; [4],14
same,"AST, worst Grade 2, n subjects",[2]; [4],6
same,"AST, worst Grade 3, n subjects",[2]; [4],1
same,"AST, worst Grade 4, n subjects",[2]; [4],0
same,"Alanine aminotransferase (ALT) abnormality, any grade, n subjects",[2]; [4],15
same,"Any Grade 3 or Grade 4 laboratory abnormality, n subjects",[2]; [4],19
same,"Aspartate aminotransferase (AST) abnormality, any grade, n subjects",[2]; [4],21
same,"Aspartate aminotransferase (AST) increased (Grade 3 or 4), n subjects",[2]; [4],1
same,"Bilirubin abnormality, any grade, n subjects",[2]; [4],7
same,"Bilirubin, worst Grade 1, n subjects",[2]; [4],3
same,"Bilirubin, worst Grade 2, n subjects",[2]; [4],4
same,"Bilirubin, worst Grade 3, n subjects",[2]; [4],0
same,"Bilirubin, worst Grade 4, n subjects",[2]; [4],0
same,"CPK increased, worst Grade 3, n subjects",[2]; [4],8
same,"CPK increased, worst Grade 4, n subjects",[2]; [4],4
same,"Creatine phosphokinase (CPK) increased (Grade 3 or 4), n subjects",[2]; [4],12
same,"Fibrinogen decreased (Grade 3 or 4), n subjects",[2]; [4],2
same,"Fibrinogen decreased, worst Grade 3, n subjects",[2]; [4],2
same,"Fibrinogen decreased, worst Grade 4, n subjects",[2]; [4],0
same,"Hemoglobin decreased (Grade 3 or 4), n subjects",[2]; [4],1
same,"Hemoglobin decreased, worst Grade 3, n subjects",[2]; [4],0
same,"Hemoglobin decreased, worst Grade 4, n subjects",[2]; [4],1
same,"Neutrophils decreased (Grade 3 or 4), n subjects",[2]; [4],2
same,"Neutrophils decreased, worst Grade 3, n subjects",[2]; [4],2
same,"Neutrophils decreased, worst Grade 4, n subjects",[2]; [4],0
same,"Phosphate decreased (Grade 3 or 4), n subjects",[2]; [4],4
same,"Phosphate decreased, worst Grade 3, n subjects",[2]; [4],4
same,"Phosphate decreased, worst Grade 4, n subjects",[2]; [4],0
same,"Prothrombin time/INR increased, worst Grade 3, n subjects",[2]; [4],0
same,"Prothrombin time/INR increased, worst Grade 4, n subjects",[2]; [4],1
same,Subjects with Grade 3 or 4 increases in CPK,[2]; CVC 100 mg,3 subjects
same,"Any graded (Grade 1-4) treatment-emergent laboratory abnormality, n subjects",[2]; CVC 100 mg (N = 58),51 (88%)
same,"Laboratory abnormality, worst Grade 1, n subjects",[2]; CVC 100 mg (N = 58),21 (36%)
same,"Laboratory abnormality, worst Grade 2, n subjects",[2]; CVC 100 mg (N = 58),23 (40%)
same,"ALT, worst Grade 1, n subjects",[2]; [5],4
same,"ALT, worst Grade 2, n subjects",[2]; [5],3
same,"ALT, worst Grade 3, n subjects",[2]; [5],0
same,"ALT, worst Grade 4, n subjects",[2]; [5],0
same,"AST, worst Grade 1, n subjects",[2]; [5],8
